Results as given in patent publication US20150011566A1, “N-PHENYLPIPERAZINE DERIVATIVES THAT ARE ANTAGONISTS OF A1A, A1D ADRENOCEPTORS AND 5-HT1A RECEPTORS FOR THE TREATMENT OF BENIGN PROSTATE HYPERPLASIA, PHARMACEUTICAL COMPOSITIONS CONTAINING THE SAME” (UNIVERSIDADE FEDERAL DO RIO DE JANEIRO-UFRJ, priority 2012, published 2015).
Where two headings read alike, the source gives them in different places.

Tests used:
5-HT1A receptors = target: T1, 5-HT1A receptors (Rattus norvegicus, UniProt P19327); test: Binding of [3H]p-MPPF with GTP to 5-HT1A receptors; intrinsic activity (Ki low/Ki high); details: for Ki: antagonist radioligand [3H] p-MPPF in the presence of GTP, read-out: Ki low; for Ki low/Ki high: estimate of intrinsic activity; for pharmacological classification: from Ki low/Ki high; for Ki value ratios for low and high affinity receptor states: in words
T1 construct: Intrinsic Activity at Native 5-HT1A Receptors; from tissue; host or cells: rat hippocampus membranes
T1 sequence (P19327 1-422): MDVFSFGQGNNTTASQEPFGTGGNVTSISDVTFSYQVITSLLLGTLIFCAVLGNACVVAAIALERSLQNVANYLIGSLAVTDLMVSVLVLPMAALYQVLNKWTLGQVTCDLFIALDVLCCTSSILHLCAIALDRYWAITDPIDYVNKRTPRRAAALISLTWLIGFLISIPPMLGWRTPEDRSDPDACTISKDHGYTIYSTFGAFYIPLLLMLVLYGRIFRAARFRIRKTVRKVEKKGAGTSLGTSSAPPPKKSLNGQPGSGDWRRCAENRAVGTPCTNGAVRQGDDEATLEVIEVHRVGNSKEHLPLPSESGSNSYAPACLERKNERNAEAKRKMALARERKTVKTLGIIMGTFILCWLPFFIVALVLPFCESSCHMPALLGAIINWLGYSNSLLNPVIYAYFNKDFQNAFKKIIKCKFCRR
Experimental: Membrane preparations of rat hippocampus according to previously described by HALL et al (1985) and PEROUTKA (1986) were performed. The homogenization and centrifugation steps were performed identically to that described above for receptors α2A and 5-HT2A receptors.
The binding assays for the 5-HT1A receptors were performed as described previously in the literature and previously standardized in the laboratory through saturation experiments. […] (solvent for dilution of LDT's) for the determination of total binding, or 50 μL non-radioative serotonin at 10 μM to determine the non-specific binding (final volume of 500 μL). Assays were performed in triplicate. […] Assays were performed in triplicate.
After the incubation period, the reaction was stopped by adding 4 ml of ice-cold solution containing 5 mM Tris (pH 7.4), followed by vacuum filtration on glass fiber filter (GMF 3, Filtrak®) previously soaked with solution 0.5% polyethylenoimine. The filters were washed three times with 4 mL of ice-cold solution containing 5 mM Tris (pH 7.4) under vacuum to remove all free radioligand. Then the filters were dried and placed in vials containing 5 ml scintillation fluid (composition: 4% PPO, 0.1% POPOP w/p in toluene). The radioactivity retained on the filters was then determined in a liquid scintillation counter (Packard Tri-Carb 1600 TR). […] For these receptors were also determined the […] and Ki parameters.
The GTP presence displaces the GPCR to a state of low affinity (Lahti et al, 1992). The intrinsic activity of a substance can be estimated using GPCR agonist or antagonist radioligand appropriate to define the affinity of the substance in the state of high and low affinity receptor, respectively.

α2A receptors = target: T2, α2A receptors (Rattus norvegicus, UniProt P22909); test: Binding of [3H]RX821002 to α2A receptors (rat cortex membranes)
T2 construct: from tissue; host or cells: rat cortex membranes
T2 sequence (P22909 1-465): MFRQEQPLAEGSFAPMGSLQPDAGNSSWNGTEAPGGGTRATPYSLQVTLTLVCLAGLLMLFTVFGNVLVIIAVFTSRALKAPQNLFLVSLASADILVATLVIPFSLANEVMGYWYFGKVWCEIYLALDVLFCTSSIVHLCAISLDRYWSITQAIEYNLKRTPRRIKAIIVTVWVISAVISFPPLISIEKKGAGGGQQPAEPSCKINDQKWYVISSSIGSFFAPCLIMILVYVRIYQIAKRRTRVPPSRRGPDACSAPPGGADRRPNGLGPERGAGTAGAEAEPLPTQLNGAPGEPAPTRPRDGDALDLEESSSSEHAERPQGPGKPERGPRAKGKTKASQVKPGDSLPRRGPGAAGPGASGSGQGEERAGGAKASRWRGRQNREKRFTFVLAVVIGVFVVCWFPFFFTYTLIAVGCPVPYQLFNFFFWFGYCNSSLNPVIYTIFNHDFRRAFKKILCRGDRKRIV
Experimental: Membrane preparations of rat cortex as described previously in the literature were performed. The organs were homogenized in a Potter with the aid of a motor unit (Fisatom) and Teflon piston in the proportion of 20 parts of 50 mM Tris HCl (pH 7.4 at 4° C.) for one piece of material, three times for 30 seconds each time, at intervals the solution was allowed to stand on ice for 1 minute.
Then it was performed a centrifugation at 900×g for 10 minutes at 4° C. It was obtained a […] which was resuspended in solution cold 50 mM Tris-HCl (pH 7.4) and the same procedure was performed once more. The supernatant was then centrifuged at 48,000×g for 10 minutes at 4° C. yielding a pellet which was resuspended at a ratio of 20 parts of 50 mM Tris HCl (pH 7.4 at 4° C.) for one piece of material, and incubated at 37° C. for 10 minutes in order to remove the endogenous neurotransmitters. Finally, centrifugation two times more at 48,000×g was performed for 10 minutes at 4° C., and then the final pellet was resuspended in a solution of 50 mM Tris-HCl (pH 7.4).
Binding assays for the α2A receptor were performed as described previously in the literature and previously standardized in the laboratory by saturation experiments. […] Incubate for 60 minutes at 30° C., 150 membrane preparation of rat cortex contained 50 μL was suspended in 50 mM Tris-HCl into tubes containing 400 μL intermediate solution ([3H] RX821002 1.25 nM, 50 mM Tris (pH 7.4 at 37° C.) and 50 μL of different concentrations of LDT's (final concentration 10^−7-3×10^−5 M to LDT65-68) or 50 μL of 50 mM Tris-HCl pH 7.4 at 37° C. (solvent for dilution of the LDT's), to determine the total binding or 50 μL nonradioactive bitartrate adrenaline at 100 μM for determining the non-specific bounding (final volume 500 μL). Assays were performed in triplicate.
After the incubation period, the reaction was stopped by adding 4 mL ice cold solution containing 5 mM Tris (pH 7.4), followed by vacuum filtration on glass fiber filter (GMF 3, Filtrak®) previously soaked with solution 0.5% polyethylenoimine. The filters were washed three times with 4 mL of ice-cold solution containing 5 mM Tris (pH 7.4) under vacuum to remove all free radioligand. Then the filters were dried and placed in vials containing 5 ml scintillation fluid (composition: 4% PPO, 0.1% POPOP w/v in toluene). The radioactivity retained on the filters was then determined in a liquid scintillation counter (Packard Tri-Carb 1600 TR). Specific binding of [3H]RX821002 to a2A receptors was defined as the difference between total binding and non-specific binding. To these receptors were determined and IC50 and Ki parameters.

[1] = Table 6, Cheng-Prusoff, read-out: Ki
[2] = Table 12, Cheng-Prusoff, read-out: Ki
[3] = Table 12, read-out: -log IC50 (converted)

SMILES | Ki (5-HT1A receptors; Table 9) | Ki low/Ki high (5-HT1A receptors; Table 9) | log IC50 (M) (α2A receptors; Table 6) | Ki (α2A receptors; [1]) | pharmacological classification (5-HT1A receptors; Table 13) | IC50 (α2A receptors) | Ki (α2A receptors) | also measured
CCCCCCCN1CCN(c2ccccc2OC)CC1 [LDT 67] | 6.7 nM | 0.37 | −6.10 ± 0.06 M | 500 nM |  |  |  | 
COc1ccc(CCN2CCN(c3ccccc3OC)CC2)cc1OC [LDT 5] |  |  |  |  | antagontist | 295 nM | 240 nM | 
COc1cccc(CCN2CCN(c3ccccc3OC)CC2)c1 [LDT 3] |  |  |  |  | antagonist |  |  | Ki value ratios for low and high affinity receptor states (5-HT1A receptors): close to the unity; Ki (α2A receptors; [2]): 930 nM; IC50 (α2A receptors; [3]): 1100 nM
CCCCCN1CCN(c2ccccc2OC)CC1 [LDT 65] |  | 1.18 |  |  |  | 2510 nM | 1500 nM | 
CCOc1ccccc1N1CCN(CCc2ccc3c(c2)OCO3)CC1 [LDT 8] |  |  |  |  | partial antagonist |  |  | Ki value ratios for low and high affinity receptor states (5-HT1A receptors): close to the unity; Ki (5-HT1A receptors; Table 13): 0.62 nM; Ki (α2A receptors; [2]): 550 nM; IC50 (α2A receptors; [3]): 603 nM
CCCCCCCCN1CCN(c2ccccc2OC)CC1 [LDT 68] | 3.1 nM | 0.34 | −6.01 ± 0.03 M | 600 nM |  |  |  | 
CCOc1ccccc1N1CCN(CCc2ccc(OC)c(OC)c2)CC1 [LDT 245] |  |  |  |  |  | 2000 nM | 160 nM | 
CCCCCCN1CCN(c2ccccc2OC)CC1 [LDT 66] | 9 nM | 1.80 | −5.92 ± 0.06 M | 800 nM |  |  |  | 
